Experimental data as given in the supplement of paper PMC10307832.

Key:
Assay in all cases: relative viability (nuclei count vs DMSO), 5 days (fraction); higher = more cells survive
Indole-3-carbinol = compound: OCc1c[nH]c2ccccc12 [Indole-3-carbinol]
How it was run: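 Lung cancer cell lines in 1536-well plates were exposed by pinning to five library-drug doses (not always all listed) √10 apart, following an overnight hold at 37 °C. MetaXpress counted Hoechst-stained nuclei from 4× images taken after 5 days without medium change. Viability is the median ratio of treated-well to vehicle-well nuclei across plates. Plates required control CV below 25% and at least one doubling.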

[1] = compound: OCc1c[nH]c2ccccc12 [Indole-3-carbinol] + CC1(C)CCC(c2ccc(Cl)cc2)=C(CN2CCN(c3ccc(C(=O)NS(=O)(=O)c4ccc(N[C@H](CCN5CCOCC5)CSc5ccccc5)c(S(=O)(=O)C(F)(F)F)c4)cc3)CC2)C1 [Navitoclax] (partner 0.5 µM)
How it was run: (§1)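 Lung cancer cell lines were pin-tool dosed in 1536-well plates on the day after seeding, with either a lone drug or a fixed anchor-drug dose plus five library-drug doses (not always all listed) in √10 steps. Nuclei were counted on 4× images after 5 days. Relative viability is the ratio of treated-well to vehicle-well nuclei counts, with each value a median of duplicate plates.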

[2] = compound: OCc1c[nH]c2ccccc12 [Indole-3-carbinol] + COc1cc2c(Oc3ccc(NC(=O)C4(C(=O)Nc5ccc(F)cc5)CC4)cc3F)ccnc2cc1OCCCN1CCOCC1 [Foretinib] (partner 0.25 µM)
How it was run: as §1

[3] = compound: OCc1c[nH]c2ccccc12 [Indole-3-carbinol] + CS(=O)(=O)N1CCN(Cc2cc3nc(-c4cccc5[nH]ncc45)nc(N4CCOCC4)c3s2)CC1 [Pictilisib] (partner 1 µM)
How it was run: as §1

[4] = compound: OCc1c[nH]c2ccccc12 [Indole-3-carbinol] + C[C@@H](Oc1cc(-c2cnn(C3CCNCC3)c2)cnc1N)c1c(Cl)ccc(F)c1Cl [Crizotinib] (partner 1 µM)
How it was run: as §1

[5] = compound: OCc1c[nH]c2ccccc12 [Indole-3-carbinol] + Cc1nc(NC(=O)N2CCC[C@H]2C(N)=O)sc1-c1ccnc(C(C)(C)C(F)(F)F)c1 [Alpelisib] (partner 2 µM)
How it was run: as §1

[6] = compound: OCc1c[nH]c2ccccc12 [Indole-3-carbinol] + CC(C)C[C@H](NC(=O)[C@H](Cc1ccccc1)NC(=O)c1cnccn1)B(O)O [Bortezomib] (partner 0.002 µM)
How it was run: as §1

[7] = compound: OCc1c[nH]c2ccccc12 [Indole-3-carbinol] + C[C@]1(O)C[C@@H](c2nc(-c3ccc4ccc(-c5ccccc5)nc4c3)c3c(N)nccn32)C1 [Linsitinib] (partner 1 µM)
How it was run: as §1

[8] = compound: OCc1c[nH]c2ccccc12 [Indole-3-carbinol] + O=C(c1cc(Cc2n[nH]c(=O)c3ccccc23)ccc1F)N1CCN(C(=O)C2CC2)CC1 [Olaparib] (partner 8 µM)
How it was run: as §1

[9] = compound: OCc1c[nH]c2ccccc12 [Indole-3-carbinol] + CS(=O)(=O)CCNCc1ccc(-c2ccc3ncnc(Nc4ccc(OCc5cccc(F)c5)c(Cl)c4)c3c2)o1 [Lapatinib] (partner 2 µM)
How it was run: as §1

[10] = compound: OCc1c[nH]c2ccccc12 [Indole-3-carbinol] + O=C(CCCCCCC(=O)Nc1ccccc1)NO [Vorinostat] (partner 1 µM)
How it was run: as §1

With Calu-6 the relative viability (Indole-3-carbinol; 0.253 µM) was 1.07, the relative viability (Indole-3-carbinol; 0.8 µM) was 0.994 and the relative viability (Indole-3-carbinol; 2.53 µM) was 1. The relative viability (Indole-3-carbinol; 8 µM) was 0.914, the relative viability ([1]; first compound 0.253 µM) was 0.836 and the relative viability ([1]; first compound 0.8 µM) was 0.947. The relative viability ([1]; first compound 2.53 µM) was 0.889, the relative viability ([1]; first compound 8 µM) was 0.648 and the relative viability ([2]; first compound 0.253 µM) was 0.927. For the same cell line, the relative viability ([2]; first compound 0.8 µM) was 0.941, the relative viability ([2]; first compound 2.53 µM) was 0.842 and the relative viability ([2]; first compound 8 µM) was 0.841. It also gave a relative viability ([3]; first compound 0.253 µM) of 0.887, a relative viability ([3]; first compound 0.8 µM) of 1.05 and a relative viability ([3]; first compound 2.53 µM) of 0.916. The relative viability ([3]; first compound 8 µM) was 0.865, the relative viability ([4]; first compound 0.253 µM) was 0.759 and the relative viability ([4]; first compound 0.8 µM) was 0.863. It also gave a relative viability ([4]; first compound 2.53 µM) of 0.871, a relative viability ([4]; first compound 8 µM) of 0.742 and a relative viability ([5]; first compound 0.253 µM) of 1.04. The relative viability ([5]; first compound 0.8 µM) was 0.966, the relative viability ([5]; first compound 2.53 µM) was 0.819 and the relative viability ([5]; first compound 8 µM) was 0.922. It also gave a relative viability ([6]; first compound 0.253 µM) of 1.08, a relative viability ([6]; first compound 0.8 µM) of 1.1 and a relative viability ([6]; first compound 2.53 µM) of 1.01. It also gave a relative viability ([6]; first compound 8 µM) of 0.966, a relative viability ([7]; first compound 0.253 µM) of 0.974 and a relative viability ([7]; first compound 0.8 µM) of 0.88. It also gave a relative viability ([7]; first compound 2.53 µM) of 1.07, a relative viability ([7]; first compound 8 µM) of 0.92 and a relative viability ([8]; first compound 0.253 µM) of 0.615. For the same cell line, the relative viability ([8]; first compound 0.8 µM) was 0.629, the relative viability ([8]; first compound 2.53 µM) was 0.59 and the relative viability ([8]; first compound 8 µM) was 0.536. It also gave a relative viability ([9]; first compound 0.253 µM) of 1.03, a relative viability ([9]; first compound 0.8 µM) of 1.12 and a relative viability ([9]; first compound 2.53 µM) of 1.05. It also gave a relative viability ([9]; first compound 8 µM) of 0.94.
EBC-1 was tested, and the relative viability (Indole-3-carbinol; 0.253 µM) was 0.938, the relative viability (Indole-3-carbinol; 0.8 µM) was 1.01 and the relative viability (Indole-3-carbinol; 2.53 µM) was 1.07. It also gave a relative viability (Indole-3-carbinol; 8 µM) of 0.871, a relative viability ([1]; first compound 0.253 µM) of 0.355 and a relative viability ([1]; first compound 0.8 µM) of 0.404. It also gave a relative viability ([1]; first compound 2.53 µM) of 0.39, a relative viability ([1]; first compound 8 µM) of 0.415 and a relative viability ([2]; first compound 0.253 µM) of 0.122. The relative viability ([2]; first compound 0.8 µM) was 0.0975, the relative viability ([2]; first compound 2.53 µM) was 0.1 and the relative viability ([2]; first compound 8 µM) was 0.102. It also gave a relative viability ([3]; first compound 0.253 µM) of 0.359, a relative viability ([3]; first compound 0.8 µM) of 0.4 and a relative viability ([3]; first compound 2.53 µM) of 0.347. It also gave a relative viability ([3]; first compound 8 µM) of 0.364, a relative viability ([4]; first compound 0.253 µM) of 0.176 and a relative viability ([4]; first compound 0.8 µM) of 0.188. It also gave a relative viability ([4]; first compound 2.53 µM) of 0.205, a relative viability ([4]; first compound 8 µM) of 0.169 and a relative viability ([5]; first compound 0.253 µM) of 0.826. The relative viability ([5]; first compound 0.8 µM) was 0.856, the relative viability ([5]; first compound 2.53 µM) was 0.83 and the relative viability ([5]; first compound 8 µM) was 0.719. The relative viability ([6]; first compound 0.253 µM) was 0.546, the relative viability ([6]; first compound 0.8 µM) was 0.541 and the relative viability ([6]; first compound 2.53 µM) was 0.628. The relative viability ([6]; first compound 8 µM) was 0.477, the relative viability ([7]; first compound 0.253 µM) was 0.974 and the relative viability ([7]; first compound 0.8 µM) was 0.965. For the same cell line, the relative viability ([7]; first compound 2.53 µM) was 1.07, the relative viability ([7]; first compound 8 µM) was 0.71 and the relative viability ([8]; first compound 0.253 µM) was 0.684. The relative viability ([8]; first compound 0.8 µM) was 0.732, the relative viability ([8]; first compound 2.53 µM) was 0.631 and the relative viability ([8]; first compound 8 µM) was 0.566. It also gave a relative viability ([9]; first compound 0.253 µM) of 0.196, a relative viability ([9]; first compound 0.8 µM) of 0.186 and a relative viability ([9]; first compound 2.53 µM) of 0.228. It also gave a relative viability ([9]; first compound 8 µM) of 0.244.
IA-LM was tested, and the relative viability (Indole-3-carbinol; 0.253 µM) was 0.962, the relative viability (Indole-3-carbinol; 0.8 µM) was 1.11 and the relative viability (Indole-3-carbinol; 2.53 µM) was 1.04. The relative viability (Indole-3-carbinol; 8 µM) was 0.905, the relative viability ([1]; first compound 0.253 µM) was 0.811 and the relative viability ([1]; first compound 0.8 µM) was 0.896. For the same cell line, the relative viability ([1]; first compound 2.53 µM) was 0.858, the relative viability ([1]; first compound 8 µM) was 0.732 and the relative viability ([10]; first compound 0.253 µM) was 1.08. For the same cell line, the relative viability ([10]; first compound 0.8 µM) was 1.03, the relative viability ([10]; first compound 2.53 µM) was 1.11 and the relative viability ([10]; first compound 8 µM) was 0.96. The relative viability ([2]; first compound 0.253 µM) was 1.07, the relative viability ([2]; first compound 0.8 µM) was 1.37 and the relative viability ([2]; first compound 2.53 µM) was 1.11. It also gave a relative viability ([2]; first compound 8 µM) of 1.09, a relative viability ([3]; first compound 0.253 µM) of 0.348 and a relative viability ([3]; first compound 0.8 µM) of 0.291. The relative viability ([3]; first compound 2.53 µM) was 0.362, the relative viability ([3]; first compound 8 µM) was 0.237 and the relative viability ([4]; first compound 0.253 µM) was 0.722. It also gave a relative viability ([4]; first compound 0.8 µM) of 1.08, a relative viability ([4]; first compound 2.53 µM) of 0.863 and a relative viability ([4]; first compound 8 µM) of 0.738. The relative viability ([5]; first compound 0.253 µM) was 0.672, the relative viability ([5]; first compound 0.8 µM) was 0.866 and the relative viability ([5]; first compound 2.53 µM) was 0.77. It also gave a relative viability ([5]; first compound 8 µM) of 0.713, a relative viability ([6]; first compound 0.253 µM) of 0.842 and a relative viability ([6]; first compound 0.8 µM) of 0.898. For the same cell line, the relative viability ([6]; first compound 2.53 µM) was 0.82, the relative viability ([6]; first compound 8 µM) was 0.789 and the relative viability ([7]; first compound 0.253 µM) was 0.674. It also gave a relative viability ([7]; first compound 0.8 µM) of 0.593, a relative viability ([7]; first compound 2.53 µM) of 0.637 and a relative viability ([7]; first compound 8 µM) of 0.444. The relative viability ([8]; first compound 0.253 µM) was 0.89, the relative viability ([8]; first compound 0.8 µM) was 0.815 and the relative viability ([8]; first compound 2.53 µM) was 0.868. For the same cell line, the relative viability ([8]; first compound 8 µM) was 0.752, the relative viability ([9]; first compound 0.253 µM) was 0.842 and the relative viability ([9]; first compound 0.8 µM) was 0.902. For the same cell line, the relative viability ([9]; first compound 2.53 µM) was 0.837 and the relative viability ([9]; first compound 8 µM) was 0.783.
NCI-H1299 showed a relative viability (Indole-3-carbinol; 0.253 µM) of 1.02, a relative viability (Indole-3-carbinol; 0.8 µM) of 1.04 and a relative viability (Indole-3-carbinol; 2.53 µM) of 0.999. For the same cell line, the relative viability (Indole-3-carbinol; 8 µM) was 0.989, the relative viability ([1]; first compound 0.253 µM) was 1.01 and the relative viability ([1]; first compound 0.8 µM) was 1.05. For the same cell line, the relative viability ([1]; first compound 2.53 µM) was 1.03, the relative viability ([1]; first compound 8 µM) was 1.02 and the relative viability ([2]; first compound 0.253 µM) was 1.07. For the same cell line, the relative viability ([2]; first compound 0.8 µM) was 1.07, the relative viability ([2]; first compound 2.53 µM) was 1.14 and the relative viability ([2]; first compound 8 µM) was 1.04. It also gave a relative viability ([3]; first compound 0.253 µM) of 0.795, a relative viability ([3]; first compound 0.8 µM) of 0.879 and a relative viability ([3]; first compound 2.53 µM) of 0.691. It also gave a relative viability ([3]; first compound 8 µM) of 0.761, a relative viability ([4]; first compound 0.253 µM) of 0.924 and a relative viability ([4]; first compound 0.8 µM) of 1. For the same cell line, the relative viability ([4]; first compound 2.53 µM) was 0.952, the relative viability ([4]; first compound 8 µM) was 0.906 and the relative viability ([5]; first compound 0.253 µM) was 1.05. For the same cell line, the relative viability ([5]; first compound 0.8 µM) was 1.11, the relative viability ([5]; first compound 2.53 µM) was 1.11 and the relative viability ([5]; first compound 8 µM) was 1.01. For the same cell line, the relative viability ([6]; first compound 0.253 µM) was 0.977, the relative viability ([6]; first compound 0.8 µM) was 1.02 and the relative viability ([6]; first compound 2.53 µM) was 1.01. The relative viability ([6]; first compound 8 µM) was 1.03, the relative viability ([7]; first compound 0.253 µM) was 0.986 and the relative viability ([7]; first compound 0.8 µM) was 1. The relative viability ([7]; first compound 2.53 µM) was 1.02, the relative viability ([7]; first compound 8 µM) was 0.869 and the relative viability ([8]; first compound 0.253 µM) was 0.907. For the same cell line, the relative viability ([8]; first compound 0.8 µM) was 0.995, the relative viability ([8]; first compound 2.53 µM) was 0.954 and the relative viability ([8]; first compound 8 µM) was 0.952. The relative viability ([9]; first compound 0.253 µM) was 0.892, the relative viability ([9]; first compound 0.8 µM) was 0.997 and the relative viability ([9]; first compound 2.53 µM) was 0.925. The relative viability ([9]; first compound 8 µM) was 0.945.
